# Laboratory results published in the SangsterLogP compilation.
# Assay: method code SF-HPLC, from Hansch, C., Leo, A., & Hoekman, D. (1995). Exploring QSAR: hydrophobic, electronic, and steric constants (Vol. 2). Washington, DC: American Chemical Society.
# Settings: pH 7.4
row,logD,Compound
1,2.01,COc1ccc2cc(C(C)C(=O)OC(O)C(=O)N(C)CCO)ccc2c1 (centres undefined)

# Assay: not given
# Settings: not given
row,logP,Compound
1,2.66,CCN1CCCC1CNC(=O)c1cc(NS(N)(=O)=O)c(Cl)cc1OC (centres undefined)
2,3.91,CC1(C)CN(CCN2CCN(c3cccc(Cl)c3)C2=O)C1
3,3.84,OC1(c2ccc(Cl)cc2)CCN(CCCC2(c3ccc(F)cc3)OCCO2)CC1
4,2.98,Cc1cc2c(s1)Nc1ccc(F)cc1N=C2N1CCN(C)CC1
5,5.78,C1=Cc2ccc3c4c(ccc(c24)C1)-c1ccccc1-3
6,2.68,O=C(O)Cc1nn(Cc2ccc(Br)cc2F)c(=O)c2ccccc12
7,0.78,O=C1NC(=O)[C@@]2(CCOc3ccc(F)cc32)N1
8,1.86,O=C(O)Cc1nn(Cc2nc3cc(F)ccc3s2)c(=O)c2ccccc12
9,4.18,O=c1[nH]c2ccccc2n1C1CCN(CCOc2ccccc2)CC1
10,2.06,CCCN1CCCC1CNC(=O)c1cc(S(N)(=O)=O)ccc1OC (centres undefined)
11,2.42,C#CCNS(=O)(=O)c1ccc(OC)c(C(=O)NCC2CCCN2CC)c1 (centres undefined)
12,2.29,CCN1CCCC1CNC(=O)c1cc(N(C)S(C)(=O)=O)ccc1OC (centres undefined)
13,2.8,C#CC(C)(C)NS(=O)(=O)c1ccc(OC)c(C(=O)NCC2CCCN2CC)c1 (centres undefined)
14,3.8,CSc1ccc2c(c1)C(N1CCN(CCO)CC1)CC2c1ccc(F)cc1 (centres undefined)
15,2.02,CCN1CCCC1CNC(=O)c1cc(NS(N)(=O)=O)ccc1OC (centres undefined)
16,2.62,CCN1CCCC1CNC(=O)c1cc(N(C)S(C)(=O)=O)c(Cl)cc1OC (centres undefined)
17,1.03,c1ccc(Cn2ncnn2)cc1

row,logP,Compound
1,2.71,c1ccc(Cn2cccc2)cc1
2,2.95,OCCN1CCN(C2CC(c3ccc(F)cc3)c3ccccc32)CC1 (centres undefined)
3,2.03,CC(=O)c1c(C)n(C)c2ccccc12
4,-0.21,N=C1C=CC(=C(c2ccc(N)cc2)c2ccc(N)cc2)C=C1
5,3.57,Cc1ccc2c(c1)C(N1CCN(CCO)CC1)CC2c1ccc(F)cc1 (centres undefined)
6,3.3,OCCN1CCN(C2CC(c3ccc(F)cc3)c3ccc(F)cc32)CC1 (centres undefined)
7,4.09,OCCC1CCN(CC/C=C2\c3ccc(F)cc3Sc3ccc(C(F)(F)F)cc32)CC1
8,3.9,FC(F)(F)C(=NOCC1OCCO1)c1ccc(Cl)cc1
9,4.47,OCCN1CCN(CCCC2c3ccc(F)cc3Sc3ccc(C(F)(F)F)cc32)CC1 (centres undefined)
10,1.36,c1ccc(Cn2cnnn2)cc1
11,2.88,COc1ccc(S(N)(=O)=O)cc1C(=O)NC1CC2CCCC1N2Cc1ccccc1 (centres undefined)
12,5.86,O=C1NCN(c2ccccc2)C12CCN(CCCC(c1ccc(F)cc1)c1ccc(F)cc1)CC2
13,4.29,c1ccc(NCCCOc2cccc(CN3CCCCC3)c2)nc1
14,2.62,CN1C(C(=O)Nc2ccccn2)=C(O)c2sc(Cl)cc2S1(=O)=O
15,1.17,O=C(O)Cc1c[nH]c2ccc(O)cc12
16,3.23,CCN1CCC[C@H]1CNC(=O)c1cc(I)ccc1OC
17,2.23,COc1cc(Cc2cnc(N)nc2N)cc(Br)c1OC

row,Compound,logP
1,CC(C)=CC1C(C(=O)OCc2ccc(C)cc2C)C1(C)C (centres undefined),4.5
2,CCc1c(C)[nH]c2c1C(=O)C1CN(C)CCC1C2 (centres undefined),1.78
3,CNc1nc(Cl)c(SC)c(N2CCN(C)CC2)n1,2.99

# Assay: not given
# Settings: not given
# Remark: another data set of the same source
row,logP,Compound
1,2.02,Cc1cccc(OCC(O)CNC(C)C)c1 (centres undefined)
2,2,C[C@]12CCC(=O)C=C1CC[C@@H]1[C@@H]2CC[C@@]2(C)[C@H]1CC[C@]2(O)[C@H](O)CO
3,0.03,COC=O
4,-0.41,CCn1cnc2c(NC(C)=O)ncnc21
5,2.89,O=C1C=C(N2CCCC2)C(=O)c2ccccc21
6,0.85,CC(C)(C)n1ccnc1C=NO

row,Compound,logP
1,CCOc1ccc(C(C)(C)COCc2cccc(Oc3ccccc3)c2)cc1,7.05
2,c1ccc(OP2OCCO2)cc1,1.42

# Same assay, conditions: pH 7.0
row,Compound,logD
1,COc1c2c(cc3c1-c1ccc(OC)c(=O)cc1C(NC(C)=O)CC3)OCO2 (centres undefined),1.6

# Same assay, conditions: pH 7.4
row,logD,Compound
1,1.09,COC(=S)NCCn1c([N+](=O)[O-])cnc1C

# Assay: method code G, from Hansch, C., Leo, A., & Hoekman, D. (1995). Exploring QSAR: hydrophobic, electronic, and steric constants (Vol. 2). Washington, DC: American Chemical Society.
# Settings: not given
row,logP,Compound
1,2.7,CCC(=O)C(Cc1ccc(C)cc1)S(=O)(=O)c1ccccc1 (centres undefined)
2,2.69,CCC(=O)C(Cc1ccc(Cl)cc1)S(=O)(=O)c1ccccc1 (centres undefined)
3,3.3,CCC(=O)C(Cc1ccc(C)cc1)S(=O)(=O)c1ccc(C)cc1 (centres undefined)
4,3.43,CCC(=O)C(Cc1ccc(Cl)cc1)S(=O)(=O)c1ccc(C)cc1 (centres undefined)
5,1.82,CCC(=O)C(Cc1ccccc1)S(=O)(=O)c1ccccc1 (centres undefined)
6,2.45,CCC(=O)C(Cc1ccccc1)S(=O)(=O)c1ccc(C)cc1 (centres undefined)
7,2.47,CCC(=O)C(Cc1ccc(OC)cc1)S(=O)(=O)c1ccc(C)cc1 (centres undefined)

# Assay: method code SF-AS, from Hansch, C., Leo, A., & Hoekman, D. (1995). Exploring QSAR: hydrophobic, electronic, and steric constants (Vol. 2). Washington, DC: American Chemical Society.
# Settings: not given
row,logP,Compound
1,0.98,CCc1cccc2c1OCCOCCOCCOCCOCCO2
2,-0.05,CC(=O)c1ccc2c(c1)OCCOCCOCCOCCOCCO2
3,3.32,CC(C)(C)c1ccc2c(c1)OCCOCCOCCOCCOc1cc(C(C)(C)C)ccc1OCCOCCOCCOCCO2
4,2.21,c1ccc2c(c1)OCCOCCOc1ccccc1OCCO2

# Same assay, conditions: pH 2.1
row,logD,Compound
1,0.21,O=C(O)C[N+]1([O-])CCN(C(=O)Cn2c(=O)sc3ccc(Cl)cc32)CC1

# Same assay, conditions: pH 6.4
row,logD,Compound
1,2.74,CC1=NN(CCOc2ccc3ccccc3c2)C(=O)C1

# Same assay, conditions: pH 7.2
row,logD,Compound
1,2.5,Cc1ccc(NN=C(C#N)C#N)c([N+](=O)[O-])c1
2,2.38,Cc1ccccc1NN=C(C#N)C#N
3,4.2,N#CC(C#N)=NNc1ccccc1C(F)(F)F

row,Compound,logD
1,N#CC(C#N)=NNc1cccc(Cl)c1Cl,3.85
2,N#CC(C#N)=NNc1ccccc1Br,3.11

# Same assay, conditions: pH 7.4
row,Compound,logD
1,O=C(Cn1c(=O)sc2ccc(Cl)cc21)N1CC[N+]([O-])(CCO)CC1,0.05
2,O=C(NP(=O)(N1CC1)N1CC1)c1ccc(Br)cc1,0.97
3,O=C(NP(=O)(N1CC1)N1CC1)c1ccccc1I,1.05
